Measured values from patent publication US8317912B2, “Wet state preservation of mineral slurries” (Arch Chemicals, Inc., priority 2011, dated 2012).

System: contaminated slurry
Test: Wet state preservation challenge test: dosed calcium carbonate slurry inoculated repeatedly with contaminated slurry, streaked on nutrient agar, examined for viable colonies; on growth of viable colonies on nutrient agar: key: − = no growth (no visible colonies); <10 = very light growth; + = light growth; ++ = moderate growth; +++ = heavy growth
Format: cell-based, bacteria
Set-up: viable colonies on nutrient agar: unit not given here
Details: for test outcome in place of 3rd inoculation: surfactant 0.1, 0.05, 0.025 and 0.01%, test completed after 2nd inoculation; for efficacy in preserving contaminated slurry (summary of Tables 4-8): between 0.03% and 0.09% of biocide A plus the surfactant, compared to biocide A and the surfactant used alone; for growth of viable colonies on nutrient agar: Biocide A 0 %
Experimental: In this example, a calcium carbonate-containing aqueous slurry was sterilized to eradicate bacterial contamination by weighing out 40 g aliquots into 60 g glass bottles and autoclaving the aliquots for 20 minutes at 120° C. A series of samples were prepared by taking the 40 g aliquots of the sterilized slurry and dosing with 0.136, 0.091, 0.046, 0.023, 0.011, and 0% of a biocide composition (“Biocide A”) shown in Table 1 plus 0, 0.01, 0.025, 0.05, and 0.1% of a surfactant as shown in Table 2. All samples were allowed to stand for 24 hours to equilibrate.
After equilibration, each test sample was inoculated with 0.8 g of a contaminated slurry, the bacteria count of which is shown in Table 3. The samples were incubated at 30° C. After a contact time of 6 hours, 1, 2, 3, or 4 days, a small aliquot of each sample was streaked across the surface of nutrient agar, incubated at 30° C. for 48 hours and the surface was examined for viable colonies. The inoculation and assessment procedures were repeated at 3 or 4 day intervals for a period of 3 inoculations.

[1] = Biocide A 0.091%, surfactant 0.05%, 1st inoculation, 1 day
[2] = surfactant 0.01 %, 1st inoculation, 0.2 days
[3] = surfactant 0.01 %, 1st inoculation, 1 day
[4] = surfactant 0.01 %, 1st inoculation, 2 days
[5] = surfactant 0.01 %, 1st inoculation, 3 days
[6] = surfactant 0.025 %, 1st inoculation, 0.2 days
[7] = surfactant 0.025 %, 1st inoculation, 1 day
[8] = surfactant 0.025 %, 1st inoculation, 2 days
[9] = surfactant 0.025 %, 1st inoculation, 3 days
[10] = surfactant 0.05 %, 1st inoculation, 0.2 days
[11] = surfactant 0.05 %, 1st inoculation, 1 day
[12] = surfactant 0.05 %, 1st inoculation, 2 days
[13] = surfactant 0.05 %, 1st inoculation, 3 days
[14] = surfactant 0.1 %, 1st inoculation, 0.2 days
[15] = surfactant 0.1 %, 1st inoculation, 1 day
[16] = surfactant 0.1 %, 1st inoculation, 2 days
[17] = surfactant 0.1 %, 1st inoculation, 3 days
[18] = Biocide A 0.091%, surfactant 0.01%, 1st inoculation, 0.2 days
[19] = Biocide A 0.136%, surfactant 0.025%, 3rd inoculation, 1 day
[20] = Biocide A 0.136%, surfactant 0.05%, 3rd inoculation, 1 day

SMILES	test outcome in place of 3rd inoculation (Biocide A 0.023%)	viable colonies on nutrient agar [1]	efficacy in preserving contaminated slurry (summary of Tables 4-8)	growth of viable colonies on nutrient agar [2]	growth of viable colonies on nutrient agar [3]	growth of viable colonies on nutrient agar [4]	growth of viable colonies on nutrient agar [5]	growth of viable colonies on nutrient agar [6]	growth of viable colonies on nutrient agar [7]	growth of viable colonies on nutrient agar [8]	growth of viable colonies on nutrient agar [9]	growth of viable colonies on nutrient agar [10]	growth of viable colonies on nutrient agar [11]	growth of viable colonies on nutrient agar [12]	growth of viable colonies on nutrient agar [13]	growth of viable colonies on nutrient agar [14]	growth of viable colonies on nutrient agar [15]	growth of viable colonies on nutrient agar [16]	growth of viable colonies on nutrient agar [17]	viable colonies on nutrient agar [18]	further results
CCCCC(CC)COC(=O)CC(C(=O)OCC(CC)CCCC)S(=O)(=O)[O-].[Na+] (centres unmarked) [Aerosol ® OT, Sodium dioctyl suphosuccinate]	SAMPLES FAILED	<10	improved efficacy	+++	+++	+++	+++	+++	+++	+++	+++	+++	+++	+++	+++	+++	+++	+++	+++		viable colonies on nutrient agar (Biocide A 0.091%, surfactant 0.01%, 1st inoculation, 1 day): <10; viable colonies on nutrient agar (Biocide A 0.136%, surfactant 0.025%, 1st inoculation, 1 day): <10
CCCCCCCCCCCCc1ccc(S(=O)(=O)O)cc1 [Dodecyl benzene sulfonic acid]	SAMPLES FAILED		improved efficacy	+++	+++	+++	+++	+++	+++	+++	+++	+++	+++	+++	+++	+++	+++	+++	+++	<10	viable colonies on nutrient agar (Biocide A 0.023%, surfactant 0.01%, 1st inoculation, 2 days): <10; viable colonies on nutrient agar (Biocide A 0.023%, surfactant 0.05%, 1st inoculation, 2 days): <10; viable colonies on nutrient agar (Biocide A 0.023%, surfactant 0.05%, 1st inoculation, 3 days): <10; viable colonies on nutrient agar (Biocide A 0.023%, surfactant 0.1%, 1st inoculation, 2 days): <10; viable colonies on nutrient agar (Biocide A 0.023%, surfactant 0.1%, 1st inoculation, 3 days): <10; viable colonies on nutrient agar (Biocide A 0.046%, surfactant 0.025%, 3rd inoculation, 2 days): <10; viable colonies on nutrient agar (Biocide A 0.046%, surfactant 0.05%, 3rd inoculation, 2 days): <10; viable colonies on nutrient agar (Biocide A 0.046%, surfactant 0.1%, 3rd inoculation, 2 days): <10; viable colonies on nutrient agar (Biocide A 0.091%, surfactant 0.01%, 3rd inoculation, 1 day): <10; viable colonies on nutrient agar (Biocide A 0.091%, surfactant 0.05%, 1st inoculation, 0.2 days): <10; viable colonies on nutrient agar (Biocide A 0.091%, surfactant 0.1%, 3rd inoculation, 1 day): <10; viable colonies on nutrient agar (Biocide A 0.136%, surfactant 0.01%, 3rd inoculation, 1 day): <10; viable colonies on nutrient agar [19]: <10; viable colonies on nutrient agar [20]: <10
CCCCC(CC)CN(CCC(=O)[O-])CCC(=O)[O-].[Na+].[Na+] (centres unmarked) [Lakeland AMA LF70 ™]	SAMPLES FAILED	<10																		<10	viable colonies on nutrient agar (Biocide A 0.046%, surfactant 0.01%, 1st inoculation, 2 days): <10; viable colonies on nutrient agar (Biocide A 0.046%, surfactant 0.1%, 1st inoculation, 2 days): <10; viable colonies on nutrient agar (Biocide A 0.091%, surfactant 0.01%, 3rd inoculation, 2 days): <10; viable colonies on nutrient agar (Biocide A 0.091%, surfactant 0.025%, 1st inoculation, 3 days): <10; viable colonies on nutrient agar (Biocide A 0.091%, surfactant 0.05%, 1st inoculation, 3 days): <10; viable colonies on nutrient agar (Biocide A 0.091%, surfactant 0.05%, 3rd inoculation, 2 days): <10; viable colonies on nutrient agar (Biocide A 0.091%, surfactant 0.1%, 1st inoculation, 3 days): <10; viable colonies on nutrient agar (Biocide A 0.091%, surfactant 0.1%, 3rd inoculation, 2 days): <10; viable colonies on nutrient agar (Biocide A 0.136%, surfactant 0.01%, 1st inoculation, 3 days): <10; viable colonies on nutrient agar [19]: <10; viable colonies on nutrient agar (Biocide A 0.136%, surfactant 0.05%, 1st inoculation, 1 day): <10; viable colonies on nutrient agar (Biocide A 0.136%, surfactant 0.05%, 1st inoculation, 3 days): <10; viable colonies on nutrient agar [20]: <10; viable colonies on nutrient agar (Biocide A 0.136%, surfactant 0.1%, 1st inoculation, 1 day): <10; viable colonies on nutrient agar (Biocide A 0.136%, surfactant 0.1%, 1st inoculation, 3 days): <10
CCCCCCCCCCCCOS(=O)(=O)[O-].[Na+] [SDS, Sodium dodecyl sulfate]			improved efficacy	+++	+++	+++	+++	+++	+++	+++	+++	+++	+++	+++	+++	+++	+++	+++	+++		viable colonies on nutrient agar (Biocide A 0.023%, surfactant 0.01%, 1st inoculation, 3 days): <10; viable colonies on nutrient agar (Biocide A 0.023%, surfactant 0.025%, 1st inoculation, 1 day): <10; viable colonies on nutrient agar (Biocide A 0.046%, surfactant 0.01%, 1st inoculation, 1 day): <10; viable colonies on nutrient agar (Biocide A 0.046%, surfactant 0.01%, 3rd inoculation, 3 days): <10; viable colonies on nutrient agar (Biocide A 0.046%, surfactant 0.05%, 1st inoculation, 0.2 days): <10; viable colonies on nutrient agar (Biocide A 0.046%, surfactant 0.05%, 2nd inoculation, 1 day): <10; viable colonies on nutrient agar (Biocide A 0.046%, surfactant 0.1%, 1st inoculation, 0.2 days): <10; viable colonies on nutrient agar (Biocide A 0.046%, surfactant 0.1%, 2nd inoculation, 1 day): <10; viable colonies on nutrient agar (Biocide A 0.091%, surfactant 0.025%, 3rd inoculation, 0.2 days): <10
